Legend:
[1] = system: fat/STZ rat; test: Whole-body insulin-stimulated glucose disposition (SSPG) with constant intravenous glucose/insulin infusion; assay type: in vivo; conditions: steady-state plasma insulin held constant
Method: (§1) Studies were also conducted to determine the mechanism by which NDGA lowers glucose. To do so, NDGA was administered to determine the effects of NDGA on insulin-stimulated glucose disposition and on basal hepatic glucose production using the high fat diet fed/streptozotocin (STZ) rat model of NIDDM. Whole-body insulin-stimulated glucose disposition was measured using a constant intravenous glucose/insulin infusion, in which the steady-state plasma insulin concentration (SSPI) is held constant and the steady-state plasma glucose concentration (SSPG) is a measure of net glucose clearance. […] In these same studies basal hepatic glucose production was measured using an intravenous infusion of radiolabeled glucose (no insulin was infused).
(§2) Studies were conducted to determine the effects of NDGA (masoprocol) on insulin-stimulated glucose disposition and on basal hepatic glucose production using the fat/STZ rat. Whole-body insulin-stimulated glucose disposition was measured using a constant intravenous glucose/insulin infusion, in which the steady-state plasma insulin concentration (SSPI) is held constant and the steady-state plasma glucose concentration (SSPG) is a measure of net glucose clearance.

[2] = system: Fructose/STZ rats; test: Triglyceride and FFA lowering in Fructose/STZ rats; assay type: in vivo, rat; conditions: fructose-fed/STZ rats
Text: (§3) In this study, the following animal models where used: • Db/db mice: homozygous mice are a model of obesity, diabetes and dyslipedemia where their leptin receptor activity is deficient. • Ob/ob mice: obese mice with diabetes. • Db/lean mice: heterozygous mice that are not diabetic. • Fat/STZ rats: non-genetically diabetic overweight rats that are fed diets enriched in fat and made hyperglycemic by chemically removing their pancreatic function to reduce insulin production by treating them with streptozotocin (STZ). • Fructose/STZ rats: non-diabetic rats that are fed diets enriched in fructose and made hyperglycemic by treating them with STZ. • ZDF rats: obese and hyperglycemic rats with other metabolic disorders.
These reductions in free fatty acid concentration could result from either decreased production (by reduced lipolysis) or increased removal of free fatty acids from the circulation by liver, fat or muscle.

[3] = system: Fat/STZ rats; test: Fat/STZ rat model, oral NDGA in CMC, PEG or Gelucire vehicles: glucose, triglycerides, FFA; assay type: in vivo; conditions: for glucose: versus 366+/−32; for glucose levels: 250 mg/kg twice daily
Method: In these studies, a variety of rodent models were used to evaluate the glucose-lowering properties and its effects on lipids, such as lowering of triglycerides. NDGA was administered orally to animals over a wide range of doses (10 to 350) mg/kg.
In this experiment, NDGA was dissolved in the following: • CMC: 0.25% carboxymethylcellulose • Gelucire: “Gelucire 44/14 (Gatefosse, Wildwood, N.J.; a well-defined mixture of mono-, di-, and tri-glycerides and mono- and di-fatty acid esters of polyethylene glycol) • PEG: 85% polyethylenene glycol, 10% tween and 5% propanediol
as §3
(§4) Baseline glucose and triglyceride concentrations, where appropriate, were measured for both diabetic and normal animals.

[4] = system: ZDF rats; test: Glucose and triglyceride lowering in ZDF rats; assay type: in vivo, rat
Text: as §3, §4

[5] = Phase I safety study, patients reporting adverse events; assay type: in vivo, human; conditions: n = 29
Method: (§5) The first Phase I study of NDGA was an ascending-dose, single-dose, single-blind (subject), placebo-controlled study conducted in healthy male volunteers between 18 and 45 years old. Fourteen subjects participated in up to 3 study periods, and 5 doses of NDGA were studied: 200, 400, 800, 1600, and 2000 mg. During each study period the subjects were monitored for safety for 72 hours following NDGA oral administration. Blood samples collected following NDGA administration were used to determine NDGA concentrations in plasma. […] The orally administered NDGA used in the study was contained in white, opaque, size 3 gelatin capsules. Each capsule contained 100 mg of NDGA.
The second Phase I study of NDGA was an open-label, randomized, two-period crossover study designed to determine if a high-fat meal affects the absorption of NDGA, and to provide preliminary information about possible gender differences in the pharmacokinetics of NDGA. A total of 16 healthy volunteers (8 men and 8 women), ranging in age from 19 to 48 years old, participated in this study. Each subject received an active NDGA dose under fasted conditions and another under fed conditions (the two study periods were separated by a 7-day washout period). Blood samples were collected immediately before and for 48 hours following NDGA administration and used for determination of plasma concentrations of NDGA. The NDGA used in the study was provided in white, opaque Size 0 gelatin capsules. Each capsule contained 250 mg of NDGA.

[6] = system: fat/STZ rat; test: Basal hepatic glucose production by intravenous infusion of radiolabeled glucose; assay type: in vivo; conditions: no insulin infused, p<0.05
Method: as §1, §2

[7] = First Phase I ascending single-dose study, NDGA concentrations in plasma after oral capsules; assay type: in vivo, human; conditions: for AUC0-last / Cmax / Tmax: capsule, healthy male volunteers
Method: as §5
The results for each of the five doses are depicted in FIGS. 4 to 8 corresponding to 200, 400, 800, 1600 and 2000 mg dosages, respectively.
The pharmacokinetic parameters of NDGA as observed in this experiment are given below in Table 1: […]

[8] = system: rat adipocytes; conditions: cited from earlier work

With `CC(Cc1ccc(O)c(O)c1)C(C)Cc1ccc(O)c(O)c1` (centres unmarked) [NDGA, nordihydroguaiaretic acid] the “reduction of steady-state plasma glucose concentration (SSPG) versus vehicle control group” value ([1]; p<0.05) was “approximately 30%”, the “reduction of steady-state plasma glucose concentration (SSPG) versus vehicle control group” value ([1]; p<0.05, listed as Masoprocol) was 30% and the “free fatty acid (FFA) concentrations” value [2] was “decreases free fatty acid (FFA) concentrations”. For the same compound, the plasma triglyceride lowering [2] was “significantly and dramatically lowered plasma triglycerides”, the triglyceride levels ([3]; Fat/STZ rat, 40 mg/Kg once daily (QD), CMC delivery vehicle, 327 +/−25 without NDGA, no significant lowering) was 270 ± 26 mg/dL and the triglyceride levels ([3]; Fat/STZ rat, 40 mg/kg QD, Gelucire delivery vehicle, 674+/−84 without NDGA, significant lowering) was 312 ± 38 mg/dL. The glucose ([3]; Fat/STZ rat, 40 mg/kg QD, Gelucire vehicle) was 299 ± 25 mg/dL, the glucose ([3]; Fat/STZ rat, 250 mg/kg QD, Gelucire vehicle) was 325 ± 26 mg/dL and the triglyceride ([3]; Fat/STZ rat, 250 mg/kg QD, Gelucire vehicle, versus 674+/−84) was 249 ± 42 mg/dL. For the same compound, the glucose levels ([3]; Fat/STZ rat, Gelucire vehicle, 497+/−22 without NDGA, significant lowering) was 380+/−28, the glucose levels ([3]; Fat/STZ rat, PEG delivery vehicle, 393+/−20 without NDGA, no significant lowering) was 364+/−20 and the glucose lowering ([3]; Fat/STZ rats, given orally) was “significantly lowers glucose”. The “free fatty acid (FFA) concentrations” value ([3]; fat-fed/STZ rats) was “decreases free fatty acid (FFA) concentrations”, the plasma triglyceride lowering ([3]; fat-fed/STZ rats) was “significantly and dramatically lowered plasma triglycerides” and the glucose lowering ([3]; fat/STZ rat, single daily dose of 150 mg/kg) was “ineffective in lowering glucose”. For the same compound, the plasma triglyceride lowering [4] was “significantly and dramatically lowered plasma triglycerides”, the glucose lowering ([4]; given orally) was “significantly lowers glucose” and the “Patients reporting adverse event: Abdominal pain” value ([5]; Body as a whole) was 1. The “Patients reporting adverse event: Asthenia” value ([5]; Body as a whole) was 2, the “Patients reporting adverse event: Headache” value ([5]; Body as a whole) was 8 and the “Patients reporting adverse event: Neck rigidity” value ([5]; Body as a whole) was 1. The “Patients reporting adverse event: Pain” value ([5]; Body as a whole) was 1, the “Patients reporting adverse event: Syncope” value ([5]; Cardiovascular system) was 1 and the “Patients reporting adverse event: Diarrhea” value ([5]; Digestive system) was 2. For the same compound, the “Patients reporting adverse event: Dyspepsia” value ([5]; Digestive system) was 1, the “Patients reporting adverse event: GI hemorrhage” value ([5]; Digestive system) was 1 and the “Patients reporting adverse event: Increased appetite” value ([5]; Digestive system) was 1. The “Patients reporting adverse event: Vomiting” value ([5]; Digestive system) was 1, the “Patients reporting adverse event: Dizziness” value ([5]; Nervous system) was 1 and the “Patients reporting adverse event: Hyperesthesia” value ([5]; Nervous system) was 1. For the same compound, the “Patients reporting adverse event: Increased coughing” value ([5]; Respiratory system) was 1, the “Patients reporting adverse event: Pharyngitis” value ([5]; Respiratory system) was 1 and the “Patients reporting adverse event: Eye pain” value ([5]; Special senses) was 1. For the same compound, the “Patients reporting adverse event: Hematuria” value ([5]; Urogenital system) was 1, the “hourly hepatic glucose production compared to vehicle” value [6] was “significantly reduced hourly hepatic glucose production” and the AUC0-last ([7]; 200 mg single oral dose) was 66 +/− 26 ng-eq hr/ml. The Cmax ([7]; 200 mg single oral dose) was 32.6 +/− 15.3 ng-eq/ml, the Tmax ([7]; 200 mg single oral dose) was 1.3 ± 0.5 h and the AUC0-last ([7]; 400 mg single oral dose) was 385 +/− 90 ng-eq hr/ml. The Cmax ([7]; 400 mg single oral dose) was 69.1 +/− 51.6 ng-eq/ml, the Tmax ([7]; 400 mg single oral dose) was 1.8 ± 0.5 h and the AUC0-last ([7]; 800 mg single oral dose) was 591 +/− 252 ng-eq hr/ml. The Cmax ([7]; 800 mg single oral dose) was 120.3 +/− 66.3 ng-eq/ml, the Tmax ([7]; 800 mg single oral dose) was 1.8 ± 1.0 h and the AUC0-last ([7]; 1600 mg single oral dose) was 889 +/− 252 ng-eq hr/ml. For the same compound, the Cmax ([7]; 1600 mg single oral dose) was 189.3 +/− 65.7 ng-eq/ml, the Tmax ([7]; 1600 mg single oral dose) was 1.5 ± 0.6 h and the AUC0-last ([7]; 2000 mg single oral dose) was 1380 +/− 514 ng-eq hr/ml. For the same compound, the Cmax ([7]; 2000 mg single oral dose) was 187.6 +/− 106.0 ng-eq/ml, the Tmax ([7]; 2000 mg single oral dose) was 1.0 ± 0.0 h and the “Safety of each tested dose” value ([7]; 200, 400, 800, 1600 and 2000 mg single oral dose, monitored 72 hours) was “considered safe”. For the same compound, the “Shape of concentration vs. time curves” value ([7]; all five doses, 200 to 2000 mg) was “unimodal (single peak)”, the “Dose proportionality of peaks” value ([7]; increasing dose levels, 200 to 2000 mg) was “less than dose proportional” and the Elimination ([7]; oral capsule (immediate release), lower dose levels) was “rapid elimination”. The glucose transport ([8]; adipocytes, in vitro) was “directly stimulates glucose transport” and the isoproterenol-induced lipolysis ([8]; rat adipocytes, in vitro (Gowri et al., 1999)) was “inhibition”.

From patent US9198879B2, “Pharmacologically optimized multimodal drug delivery system for nordihydroguiaretic acid (NDGA)” (Napo Pharmaceuticals, Inc., priority 2011, dated 2015)
